From patent US20100028879A1, “Modulators of HSD17b7 for treating acne or hyperseborrhea” (GALDERMA RESEARCH & DEVELOPMENT, priority 2006, published 2010)
Where two headings read alike, the source gives them in different places.

System: HSD17B7 gene
Details: gonadectomized mice, short-term treatment
Procedure: The points Veh-24h-a and Veh-24h-b show the level of expression of HSD17B7 of gonadectomized mice untreated with DHT.
The expression of the genes was analyzed on an Affymetrix station (microfluidic model; hybridization oven; scanner; computer) following the protocols provided by the company. Briefly, the total RNA isolated from the tissues was transcribed to cDNA. From the double-stranded cDNA, a cRNA labeled with biotin was synthesized using T7 polymerase and a precursor NTP conjugated to biotin. The cRNAs were then fragmented to small sized fragments. […] The Affymetrix chip is hybridized with the biotinylated cRNA, rinsed and then fluorescence labeled using a fluorophore conjugated to streptavidin. After washings, the chip is scanned and the results are calculated using the MAS5 software provided by Affymetrix. An expression value is obtained for each gene as well as the indication of the significance of the value obtained.
B. Male mice were gonadectomized and were then treated with the vehicle or DHT. The preputial glands were removed for a period ranging up to 4 days (androgenic treatment alone—observation of a short-term kinetics). The RNA was isolated and the expression of the genes was analyzed by the Affymetrix technique using two different probe sets: 1417871_at (FIGS. 2A and 2C) and 1448865_at (FIGS. 2B and 2D).

## C[C@]12CCC(=O)C[C@@H]1CC[C@@H]1[C@@H]2CC[C@]2(C)[C@@H](O)CC[C@@H]12 [DHT, Dihydrotestosterone]
Kinetic study 15 minutes to 96 hours, effect visible at 24 and 96 hours, FIGS. 2A, 2B
  mRNA for HSD17B7 in the mouse preputial gland: moderately induced
Kinetic study 1 hour to 24 hours, effect starting at 12 hours, well visible at 18 and 24 hours, FIGS. 2C, 2D
  mRNA for HSD17B7 in the mouse preputial gland: induced
